Patent publication US7732425B2, “Pharmaceutical composition for ophthalmic use” (Kabushiki Kaisha Hayashibara Seibutsu Kagaku Kenkyujo, priority 2000, dated 2010)

System: ophthalmologic clinical symptoms and signs of Sjögren syndrome
Experiment: Therapeutic experiment with α,α-trehalose eye drops in patients diagnosed with Sjögren syndrome
Type: in vivo, human
Description: To confirm the therapeutic effect by trehalose on the ophthalmologic clinical symptoms and signs of Sjögren syndrome, patients consisting of 10 men and 10 women, 22-65 years old (a mean average of 45 years old), who were diagnosed as Sjögren syndrome and had been suffering from clinical symptoms such as foreign body sensation, burning, and itching in their both eyes, were subjected to a therapeutic experiment. In this experiment, a reagent grade of α,α-trehalose with a purity of 99% or higher, commercialized by Hayashibara Biochemical Laboratories, Inc., Okayama, Japan, was dissolved in physiological saline to give a final concentration of 3.5% (w/v) or 7.5% (w/v), and filtered with a 0.22 μm membrane filter to remove bacteria. Then, the filtrate was removed pyrogen in a usual manner for a test preparation. As a control, a similar preparation was provided except for not dissolving α,α-trehalose therein. The 3.5% (w/v) α,α-trehalose solution was administered to one eye for each one of 5-male and 5-female patients, while the physiological saline as a control was administered to the other eye for each one of the patients. The administrations were conducted at four times (getting up, daytime, evening, and before sleeping) a day and at a dose of two to three drops (a volume of about 0.05 to about 0.075 ml) per shot for four weeks. Before and after this experiment, the patients were asked to grade the symptoms of foreign body sensation, burning, and itching in their eyes. Using the 7.5% (w/v) α,α-trehalose solution, a similar experiment was conducted with the remaining male and female patients, five each.

[1] = patients with Sjögren syndrome, 3.5% or 7.5% (w/v) solution, four times a day for four weeks

SMILES: OC[C@H]1O[C@H](O[C@H]2O[C@H](CO)[C@@H](O)[C@H](O)[C@H]2O)[C@H](O)[C@@H](O)[C@@H]1O [α,α-trehalose]
- duration of therapeutic effect after end of administration (after completion of the four-week experiment): lasted for some days even after the completion of this experiment
- exacerbation of the ophthalmologic clinical symptoms and signs in the treated eyes (all twenty patients, during and after completion of the four-week experiment): no exacerbation
- improvement or remission of the subjective ophthalmic symptoms of foreign body sensation, burning, and itching (patients with Sjögren syndrome, 3.5% (w/v) or 7.5% (w/v) solution in physiological saline, one eye, 2-3 drops four times a day for four weeks, other eye saline control): nine out of ten patients
- corneal and conjunctival erosions stained by fluorescein and rose bengal (objective sign) [1]: reduced in all the ten patients
- tear film break-up time (objective sign) [1]: improved in nine out of ten patients
